The test system of one test is Nalm-6 SF3B1^K700K cells. Kind of test: Splice variant levels in Nalm-6 isogenic cells by RNA-Seq. The class given is cell-based, human. The settings on record: additional compounds, FIG. 19. The procedure: (§1) To investigate the broader activity of E7107 on normal and aberrant splicing, RNA from Nalm-6 isogenic cells treated for two and six hours at 15 nM was analyzed by NanoString®. […] Normal and aberrant splicing in the isogenic cell lines was also analyzed by RNA-Seq following treatment with one of additional compounds having formulas 1 or 2. […] For the RNA-Seq analysis, cells were washed with PBS after treatment with E7107 or other test compound, and RNA was isolated using PureLink (Life Technology) as reported in the manufacturer's manual. cDNA library preparation, sequencing and raw read filtering was performed as described in Ren, S. et al. “RNA-Seq analysis of prostate cancer in the Chinese population identifies recurrent gene fusions, cancer-associated long noncoding RNAs and aberrant alternative splicings.” Cell Res 22, 806-821, doi:10.1038/cr.2012.30 (2012).

The subject of a further test is Nalm-6 SF3B1^K700E cells. The test is described as above. The test is classed as cell-based, human. Conditions: additional compounds, FIG. 19. Here is the method:
as §1

Turning to `C/C(=C\C=C\[C@@H](C)c1ccccn1)[C@H]1OC(=O)C[C@H](O)CC[C@@](C)(O)[C@@H](OC(=O)N2CCN(C3CCCCCC3)CC2)/C=C/[C@@H]1C` [Compound 1], the “expression of WT-associated and MUT-associated RNA isoforms by RNA-Seq” value in the test with Nalm-6 SF3B1^K700K cells was “inhibited expression of both WT-associated and MUT-associated RNA isoforms”; in the test on Nalm-6 SF3B1^K700E cells, “inhibited expression of both WT-associated and MUT-associated RNA isoforms”.

Take `C/C(=C\C=C\[C@@H](C)c1ccccn1)[C@H]1OC(=O)C[C@H](O)CC[C@@](C)(O)[C@@H](OC(=O)N2CCN(C)CC2)/C=C/[C@@H]1C` [Compound 2]: the “expression of WT-associated and MUT-associated RNA isoforms by RNA-Seq” value in the test with Nalm-6 SF3B1^K700K cells was “inhibited expression of both WT-associated and MUT-associated RNA isoforms”; in the test on Nalm-6 SF3B1^K700E cells it was “inhibited expression of both WT-associated and MUT-associated RNA isoforms”.
